Two compounds from the NIST ThermoML archive (doi:10.1016/j.jct.2012.12.026) can be followed below.

Structures are written as SMILES. Numbers after ± are expanded uncertainties.

The conditions of the series: Liquid, Closed cell (Static) method.

For the compound `FC(F)C(F)F` [1,1,2,2-tetrafluoroethane], the “vapor or sublimation pressure” value by setting is: (278.15 K) 271.3 ± 1.3 kPa; (288.15 K) 382.9 ± 1.5 kPa.
As for `F/C=C/C(F)(F)F` [trans-1,3,3,3-tetrafluoropropene], the “vapor or sublimation pressure” value is recorded as 120.2 ± 1 kPa (258.15 K), 179.3 ± 1 kPa (268.15 K), 259.2 ± 1.1 kPa (278.15 K) and 364.2 ± 1.1 kPa (288.15 K).
